Assay results taken from patent US4992450A, “Piperidine opioid antagonists” (Eli Lilly and Company, priority 1989, dated 1991).
Counter-ions that a name gives are not always drawn. Like-named read-outs stand apart in the source and are kept apart here.

Tests used:
kappa receptor [1] = target: T1, kappa receptor (Cavia porcellus, UniProt P41144); assay: Opioid receptor binding displacement assay, kappa site (guinea pig cortex, 3H ligand); design: species or system male Hartley guinea pigs
T1 construct: guinea pig cortex for the kappa site; from tissue; host or cells: guinea pig cortex, frozen pellet fraction
T1 sequence (P41144 whole entry): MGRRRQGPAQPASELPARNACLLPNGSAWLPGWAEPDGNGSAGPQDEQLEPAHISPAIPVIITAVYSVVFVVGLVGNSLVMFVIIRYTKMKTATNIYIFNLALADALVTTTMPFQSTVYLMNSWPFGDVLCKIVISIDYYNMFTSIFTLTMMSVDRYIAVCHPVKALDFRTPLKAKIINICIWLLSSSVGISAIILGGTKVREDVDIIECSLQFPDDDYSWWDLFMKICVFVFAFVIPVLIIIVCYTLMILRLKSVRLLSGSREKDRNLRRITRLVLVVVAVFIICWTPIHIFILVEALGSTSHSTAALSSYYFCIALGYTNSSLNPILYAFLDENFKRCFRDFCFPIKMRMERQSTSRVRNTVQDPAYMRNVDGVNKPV
Description: (§1) This assay was conducted by the following procedure.
(§2) Male Sprague Dawley rats for mu and delta site experiments and male Hartley guinea pigs for kappa site experiments were sacrificed via decapitation and the brains were removed. The brain tissue, rat whole brain minus cerebellum for mu and delta sites and guinea pig cortex for the kappa site, was homogenized in a Teflon and glass tissue homogenizer. A supernatant I, pellet IV, fraction was frozen in a nitrogen freezer at 1.33 g/ml concentration and stored for not longer than five weeks prior to use. Pellets were rehydrated with physiological buffer prior to use.
(§3) The reaction was initiated by the addition of the rehydrated tissue which has been preincubated at 37° C. for 20 minutes. The reaction mixture was incubated in a 37° C. water bath for 20 minutes. The reaction was terminated by rapid filtration, (Amicon vacuum manifolds), through Whatman GF/C glass filters that had been presoaked in Krebs-Hepes buffer pH 7.4. The filters were then washed 2× with 5 ml of ice cold Krebs-Hepes buffer pH 7.4. Washed filters were placed in scintillation vials and 10 ml PCS, (Amersham), was added and samples counted in a Searle D-300 beta counter. Means and standard error statistics were calculated for triplicate experimental determinations in certain cases. The procedure was slightly modified for the kappa site. The tissue was pretreated with 100 nM concentrations of mu and delta receptor site blockers. The incubation time for the reaction mixture was 45 minutes at 37° C.

kappa receptor [2] = target: T2, kappa receptor (Mus musculus, UniProt P33534); assay: in vivo; design: species or system CF-1 male mice; conditions: sc, read-out: Kappa AD50
T2 construct: Five CF-1 male mice (Charles River, Portage, Mich.); from tissue; host or cells: whole living CF-1 male mice (in vivo)
T2 sequence (P33534 whole entry): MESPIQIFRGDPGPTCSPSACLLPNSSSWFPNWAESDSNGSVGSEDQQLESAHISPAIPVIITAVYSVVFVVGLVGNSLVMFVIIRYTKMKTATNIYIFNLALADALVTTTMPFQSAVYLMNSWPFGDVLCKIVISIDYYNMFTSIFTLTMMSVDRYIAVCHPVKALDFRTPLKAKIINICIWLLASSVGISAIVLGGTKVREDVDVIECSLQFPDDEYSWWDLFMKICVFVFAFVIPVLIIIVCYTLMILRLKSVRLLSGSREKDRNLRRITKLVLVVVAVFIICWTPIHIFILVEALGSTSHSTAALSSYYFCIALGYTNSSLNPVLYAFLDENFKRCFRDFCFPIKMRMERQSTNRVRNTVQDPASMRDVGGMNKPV

kappa receptors = target: T3, kappa receptors (Rattus norvegicus, UniProt P34975); assay: Rat diuresis assay, antagonism of bremazocine-induced urination; type: in vivo, male Long-Evans hooded rats; conditions: sc, rats, s.c., urinary output reduced to 50% of effect of 0.08 mg/kg bremazocine alone
T3 construct: sixty male Long-Evans hooded rats; from tissue; host or cells: whole living male Long-Evans hooded rats (in vivo)
T3 sequence (P34975 whole entry): as the sequence (P33534 whole entry) above, with D11E, S17A, S51P, A308V counted along it
Description: As such, the compounds of the invention were also evaluated in a rat diuresis assay conducted according to the following procedure described by Leander et al. in Drug Development Research 4:421-427 (1984) in an effort to further establish the ability of the present compounds to block kappa receptors.
According to this procedure, sixty male Long-Evans hooded rats (Charles River Breeding Laboratories, Portage, Mich.) weighing between about 300 and 500 grams each were housed either individually or in pairs in a temperature-controlled (23° C.) colony room which was illuminated between 6:00 A.M. and 6:00 P.M. Rodent chow and tap water were continuously available except during the measurement of urine output. The animals were used repeatedly, but no more frequently than twice a week.
The animals were then injected with various doses of the test compounds. To measure urine output, the animals were removed from the home cages, weighed, injected and placed in metabolism cages for 5 hr. Excreted urine was funneled into graduated cylinders. Cumulative urine volumes were determined at designated time intervals, usually at 2 and 5 hr after injection.
The compounds which are salt forms were dissolved in distilled water. If necessary, the compounds were dissolved in distilled water with the aid of either a few drops of lactic acid or hydrochloric acid and gentle warming. All injections were s.c. in a volume of 1 ml/kg of body weight. During tests for antagonism, two injections were given, one on each side of the body.
In the Table, column 1 provides the Example Number of the compound tested; column 2, the amount of compound in mg/kg necessary to reduce the urinary output to 50% of the effect produced by 0.08 mg/kg of bremazocine alone two hours after injection of bremazocine and the test compound; and column 3, the amount of compound in mg/kg necessary to reduce the urinary output to 50% of the effect produced by 0.08 mg/kg of bremazocine alone five hours after injection of bremazocine and the test compound.

mu receptor [3] = target: T4, mu receptor (Rattus norvegicus, UniProt P33535); assay: Opioid receptor binding displacement assay, mu site (rat whole brain minus cerebellum, 3H ligand); design: species or system Male Sprague Dawley rats
T4 construct: rat whole brain minus cerebellum for mu and delta sites; from tissue; host or cells: rat whole brain minus cerebellum, frozen pellet fraction
T4 sequence (P33535 whole entry): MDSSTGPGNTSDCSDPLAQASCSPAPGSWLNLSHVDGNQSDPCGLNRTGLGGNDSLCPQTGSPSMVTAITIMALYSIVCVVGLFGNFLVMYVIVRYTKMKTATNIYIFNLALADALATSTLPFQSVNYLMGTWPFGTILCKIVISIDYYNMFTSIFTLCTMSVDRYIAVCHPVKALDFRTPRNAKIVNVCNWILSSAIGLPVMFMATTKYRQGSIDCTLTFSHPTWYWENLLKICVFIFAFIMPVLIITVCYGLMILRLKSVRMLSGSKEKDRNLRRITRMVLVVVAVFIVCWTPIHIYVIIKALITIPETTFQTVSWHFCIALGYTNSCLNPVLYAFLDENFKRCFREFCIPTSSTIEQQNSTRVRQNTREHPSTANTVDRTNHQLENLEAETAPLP
Description: as §1, §2, §3

[4] = tested on: meal fed obese Zucker rats; assay: Food consumption assay in meal fed obese Zucker rats; type: in vivo; conditions: Rattus norvegicus, sc, 4 h, amount to decrease food consumption 20% during first four hours
Excerpt: The following assay was employed to evaluate the ability of the compounds of the invention to effect food and water consumption of meal fed obese Zucker rats.
According to this procedure, 3-4 month old obese Zucker rats were trained to eat food daily from 8:00 A.M. to 4:00 P.M. only, such that the body weight gain approximates that if the rats were fed ad libitum. These rats were allowed to consume water at all times. Four groups of rats with four rats in each group, two female and two male, were formed. One group served as control for the other three groups each day. Each of the other groups were given a subcutaneous dose of the compound to be evaluated. The test compound was formulated in physiological saline containing 10% dimethylsulfoxide by volume.
Animals remained drug free for 4 days before the next test. Food and water consumption of each rat were measured for the first four hours. A test on one compound was run for three consecutive days. The drug effect was expressed as the percent of the control for that test day.
In the Table, column 1 gives the Example Number of the compound evaluated; and column 2 provides the ED20 in mg/kg, wherein ED20 represents the amount of compound evaluated in mg/kg necessary to decrease food consumption 20% during the first four hours of the experiment.

mu receptor [5] = target: T5, mu receptor (Mus musculus, UniProt P42866); assay: Mouse writhing assay, antagonism of morphine analgesia (mu); type: in vivo, CF-1 male mice; conditions: sc, read-out: Mu AD50
T5 construct: Five CF-1 male mice (Charles River, Portage, Mich.); from tissue; host or cells: whole living CF-1 male mice (in vivo)
T5 sequence (P42866 whole entry): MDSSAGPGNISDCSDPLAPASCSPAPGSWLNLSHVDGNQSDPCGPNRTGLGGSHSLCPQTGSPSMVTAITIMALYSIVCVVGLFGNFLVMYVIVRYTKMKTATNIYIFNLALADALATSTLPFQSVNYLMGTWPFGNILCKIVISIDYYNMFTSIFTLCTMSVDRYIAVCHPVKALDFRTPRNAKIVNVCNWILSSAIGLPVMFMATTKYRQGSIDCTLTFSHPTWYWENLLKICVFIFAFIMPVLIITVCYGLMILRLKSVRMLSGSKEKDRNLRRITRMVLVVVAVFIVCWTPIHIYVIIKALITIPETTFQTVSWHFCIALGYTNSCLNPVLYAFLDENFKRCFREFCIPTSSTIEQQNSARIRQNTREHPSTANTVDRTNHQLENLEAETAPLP

[6] = 2 h, two hours after injection, read-out: AD50 Two Hours
[7] = 5 h, five hours after injection, read-out: AD50 Five Hours
[8] = guinea pig cortex, pH 7.4, 37° C., 45 minutes, mu and delta sites blocked (100 nM), read-out: Ki Kappa
[9] = rat brain minus cerebellum, pH 7.4, 37° C., 20 minutes, read-out: Ki Mu

SMILES	Ki (kappa receptor [1]) [nM]	ED50 (kappa receptor [2]) [mg/kg]	ED50 (kappa receptors; [6]) [mg/kg]	ED50 (kappa receptors; [7]) [mg/kg]	Ki (mu receptor [3]) [nM]	ED20 [4] [mg/kg]	ED50 (mu receptor [5]) [mg/kg]	Ki (kappa receptor [1]; [8]) [nM]	Ki (mu receptor [3]; [9]) [nM]	Ki (kappa receptor [1]; read-out: Ki Kappa, guinea pig cortex, pH 7.4, 37° C., 45 minutes, mu and delta sites blocked (100 nM)) [nM]
C=C(C)CCCN1CCC(C)(c2cccc(O)c2)C(C)C1 (stereo not drawn) [Example 3, trans-(±)-1-(4-Methyl-4-pentenyl)-3,4-dimethyl-4-(3-hydroxyphenyl)piperidine hydrochloride]	13.9 ± 6.66	0.29	0.27	0.39	2.95 ± 1.12	0.29	0.08	–	–	–
C[C@H]1CN(CCc2ccccc2)CC[C@@]1(C)c1cccc(O)c1 (relative stereo) [Compound D, 3-(3α,4β-Dimethyl-1-phenethyl-4α-piperidyl)phenol hydrochloride, reference compound]	–	1.38	–	–	–	0.94	0.16	51	1.2	–
C=CCCCCN1CCC(C)(c2cccc(O)c2)C(C)C1 (stereo not drawn) [Example 21, trans-(±)-1-(5-n-Hexenyl)-3,4-dimethyl-4-(3-hydroxyphenyl)piperidine hydrochloride]	–	–	–	–	1.61	9.37	–	–	–	–
C[C@H]1CN(CCC2C=CCC2)CC[C@@]1(C)c1cccc(O)c1 (relative stereo) [Example 7, trans-(±)-1-[2-(2-Cyclopenten-1-yl)ethyl]-3,4-dimethyl-4-(3-hydroxyphenyl)piperidine hydrochloride]	1.04	0.12	1.3	1.38	–	0.34	0.11	–	–	–
CC1CN(CC2CCCCC2)CCC1(C)c1cccc(O)c1 (stereo not drawn) [Example 10, trans-(±)-1-(Cyclohexylmethyl)-3,4-dimethyl-4-(3-hydroxyphenyl)piperidine hydrochloride]	28.2	0.34	14.9	3.9	–	1.25	0.46	–	–	–
CC(C)CCN1CCC(C)(c2cccc(O)c2)C(C)C1 (stereo not drawn) [Example 16, trans-(±)-1-(3-Methylbutyl)-3,4-dimethyl-4-(3-hydroxyphenyl)piperidine hydrochloride]	70.1	0.62	7.7	4.45	–	> 20	0.87	–	–	–
C[C@H]1CN(CCC(=O)C2CCCC2)CC[C@@]1(C)c1cccc(O)c1 (relative stereo) [Example 17, trans-(±)-1-(1-Cyclopentylpropanon-3-yl)-3,4-dimethyl-4-(3-hydroxyphenyl)piperidine hydrochloride]	0.55	0.19	–	–	0.84	0.31	0.21	–	–	–
C[C@H]1CN(CCC(O)C2CCCCC2)CC[C@@]1(C)c1cccc(O)c1 (relative stereo) [Example 27, trans-(±)-1-[R,S-(3-Hydroxy-3-cyclohexylpropyl)]-3,4-dimethyl-4-(3-hydroxyphenyl)piperidine hydrochloride]	–	0.14	–	–	–	0.04	0.07	5.04 ± 0.58	0.22 ± 0.03	–
C[C@H]1CN(C)CC[C@@]1(C)c1cccc(O)c1 (relative stereo) [Compound B, 3-(1,3α,4β-Trimethyl-4α-piperidyl)phenol hydrochloride, reference compound]	–	2.5	–	–	–	3.99	0.74	–	80	–
C[C@@H]1CN(CC[C@H](O)C2CCCCC2)CC[C@]1(C)c1cccc(O)c1 [Example 24, trans-(-)-1-[S-(3-Hydroxy-3-cyclohexylpropyl)]-3,4-dimethyl-4-(3-hydroxyphenyl)piperidine]	–	0.24	–	–	–	0.12	0.05	11.4 ± 4.29	1.4 ± 0.61	–
C[C@@H]1CN(CC[C@@H](O)C2CCCCC2)CC[C@]1(C)c1cccc(O)c1 [Example 26, trans-(-)-1-[R-(3-Hydroxy-3-cyclohexylpropyl)]-3,4-dimethyl-4-(3-hydroxyphenyl)piperidine]	–	0.52	–	–	2.24 ± 0.17	0.35	0.07	–	–	–
CC1CN(CCCC2CCCCC2)CCC1(C)c1cccc(O)c1 (stereo not drawn) [Example 11, trans-(±)-1-(3-Cyclohexylpropyl)-3,4-dimethyl-4-(3-hydroxyphenyl)piperidine hydrochloride]	2.34	0.35	1.9	1.02	–	0.15	0.19	–	–	–
CC1CN(CCC2CCCC2)CCC1(C)c1cccc(O)c1 (stereo not drawn) [Example 6, trans-(±)-1-(2-Cyclopentylethyl)-3,4-dimethyl-4-(3-hydroxyphenyl)piperidine hydrochloride]	–	0.22	–	0.67	0.94	0.33	0.13	–	–	–
COC(CCN1CC[C@@](C)(c2cccc(O)c2)[C@@H](C)C1)C1CCCCC1 (relative stereo) [Example 31, trans-(±)-1-[R,S-(3-Methoxy-3-cyclohexylpropyl)]-3,4-dimethyl-4-(3-hydroxyphenyl)piperidine hydrochloride]	–	0.44	–	–	–	–	1.42	3.82	0.77	–
CC1CN(CCCc2ccsc2)CCC1(C)c1cccc(O)c1 (stereo not drawn) [Example 41, trans-(±)-1-[3-(3-Thienyl)propyl]-3,4-dimethyl-4-(3-hydroxyphenyl)piperidine hydrochloride]	10.3	0.24	2.7	1.9	–	–	0.12	–	–	–
CC(C)CCCCN1CCC(C)(c2cccc(O)c2)C(C)C1 (stereo not drawn) [Example 4, trans-(±)-1-(5-Methylhexyl)-3,4-dimethyl-4-(3-hydroxyphenyl)piperidine hydrochloride]	–	0.23	0.17	0.46	–	0.05	0.35	–	–	6.04 ± 0.44
C[C@H]1CN(CCC(O)c2cccs2)CC[C@@]1(C)c1cccc(O)c1 (relative stereo) [Example 40, trans-(±)-1-[R,S-[3-Hydroxy-3-(2-thienyl)-propyl]-3,4-dimethyl-4-(3-hydroxyphenyl)piperidine hydrochloride]	–	0.14	3.78	1.44	–	0.11	0.065	–	0.5	–
